target: T1, PIKfyve (Homo sapiens, UniProt Q9Y2I7); test: Degradation of PIKfyve proteins in VCaP tumor cells (24 h, Western blot); type: cell-based; conditions: 37° C., compared with DMSO control, WB, read-out: DC50 (concentration that achieves 50% degradation activity)
T1 construct: endogenous in cells; host or cells: VCaP
Summary of the method: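 VCaP cells (5×10^6 cells/ml) treated with a range of compound concentrations at 37° C for 24 h, then lysed in SDS buffer. PIKfyve level measured by Western blot with GAPDH as loading control and ECL detection. DC50 is the concentration giving 50% degradation relative to DMSO control.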

T1 sequence (Q9Y2I7 whole entry): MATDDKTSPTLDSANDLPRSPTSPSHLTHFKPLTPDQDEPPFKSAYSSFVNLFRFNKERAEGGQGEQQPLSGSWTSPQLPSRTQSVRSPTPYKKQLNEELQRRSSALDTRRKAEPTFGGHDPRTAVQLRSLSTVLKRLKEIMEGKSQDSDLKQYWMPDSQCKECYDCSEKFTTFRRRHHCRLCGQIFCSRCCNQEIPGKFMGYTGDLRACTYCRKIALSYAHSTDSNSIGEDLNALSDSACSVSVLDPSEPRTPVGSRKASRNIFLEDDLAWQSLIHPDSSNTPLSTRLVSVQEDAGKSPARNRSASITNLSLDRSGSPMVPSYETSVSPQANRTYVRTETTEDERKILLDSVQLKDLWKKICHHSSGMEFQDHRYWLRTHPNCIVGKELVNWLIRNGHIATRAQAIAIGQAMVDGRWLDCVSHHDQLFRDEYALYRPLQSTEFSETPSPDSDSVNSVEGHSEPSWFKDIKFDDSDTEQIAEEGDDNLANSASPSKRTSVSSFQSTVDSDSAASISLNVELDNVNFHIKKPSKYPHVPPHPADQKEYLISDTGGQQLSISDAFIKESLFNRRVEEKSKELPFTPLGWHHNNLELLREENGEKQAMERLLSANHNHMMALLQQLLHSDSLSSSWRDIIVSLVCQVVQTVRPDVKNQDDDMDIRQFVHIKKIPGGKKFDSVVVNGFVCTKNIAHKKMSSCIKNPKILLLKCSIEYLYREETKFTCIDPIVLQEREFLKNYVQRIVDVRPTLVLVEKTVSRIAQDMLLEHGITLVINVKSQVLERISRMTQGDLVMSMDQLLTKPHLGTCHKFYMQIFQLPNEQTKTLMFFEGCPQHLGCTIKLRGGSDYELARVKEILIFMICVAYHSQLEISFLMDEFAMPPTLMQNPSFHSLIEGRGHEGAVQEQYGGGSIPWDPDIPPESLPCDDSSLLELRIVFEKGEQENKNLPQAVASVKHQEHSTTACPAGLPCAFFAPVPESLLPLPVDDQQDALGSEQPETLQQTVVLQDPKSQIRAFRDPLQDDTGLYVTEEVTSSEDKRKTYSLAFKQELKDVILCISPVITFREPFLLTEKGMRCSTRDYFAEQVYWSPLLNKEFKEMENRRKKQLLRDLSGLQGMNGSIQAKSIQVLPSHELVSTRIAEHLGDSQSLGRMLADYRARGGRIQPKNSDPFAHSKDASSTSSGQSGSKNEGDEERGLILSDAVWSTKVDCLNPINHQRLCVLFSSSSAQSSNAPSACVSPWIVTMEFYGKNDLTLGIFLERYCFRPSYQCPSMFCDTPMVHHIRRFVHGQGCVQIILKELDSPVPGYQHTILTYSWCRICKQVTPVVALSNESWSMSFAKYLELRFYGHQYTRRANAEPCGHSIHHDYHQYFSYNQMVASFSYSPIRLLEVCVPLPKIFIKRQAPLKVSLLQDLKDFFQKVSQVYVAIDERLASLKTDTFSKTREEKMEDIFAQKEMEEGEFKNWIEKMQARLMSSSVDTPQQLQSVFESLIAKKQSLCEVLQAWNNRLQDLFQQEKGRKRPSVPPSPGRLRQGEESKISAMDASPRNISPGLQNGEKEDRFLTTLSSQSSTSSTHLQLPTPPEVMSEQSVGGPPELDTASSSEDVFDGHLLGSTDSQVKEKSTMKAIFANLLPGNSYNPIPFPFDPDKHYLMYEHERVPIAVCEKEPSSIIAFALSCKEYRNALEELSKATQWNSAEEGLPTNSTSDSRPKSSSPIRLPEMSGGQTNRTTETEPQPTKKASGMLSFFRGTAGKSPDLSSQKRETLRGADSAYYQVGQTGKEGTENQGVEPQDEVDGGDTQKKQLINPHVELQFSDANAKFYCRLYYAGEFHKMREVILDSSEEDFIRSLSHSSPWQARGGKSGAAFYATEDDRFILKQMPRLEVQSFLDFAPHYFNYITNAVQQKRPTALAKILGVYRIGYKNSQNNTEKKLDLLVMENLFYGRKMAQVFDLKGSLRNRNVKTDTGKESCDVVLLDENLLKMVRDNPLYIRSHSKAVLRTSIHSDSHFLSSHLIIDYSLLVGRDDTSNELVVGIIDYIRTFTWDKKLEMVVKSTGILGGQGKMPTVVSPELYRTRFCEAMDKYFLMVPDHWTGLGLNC

DC50	SMILES
1 to 100 nM	Cc1cccc(-c2ccn(-c3cc(N4CCOCC4)nc(OC4CCN(c5ccc(NC(=O)NC6CN(C(=O)C[C@H](NC(=O)[C@@H]7C[C@@H](O)CN7C(=O)[C@@H](NC(=O)C7(F)CC7)C(C)(C)C)c7ccc(-c8scnc8C)cc7)C6)cc5)CC4)n3)n2)c1 [Example 80, (2S,4R)-1-((S)-2-(1-fluorocyclopropane-1-carboxamido)-3,3-dimethylbutanoyl)-4-hydroxy-N—((S)-1-(4-(4-methylthiazol-5-yl)phenyl)-3-(3-(3-(4-(4-((4-morpholino-6-(3-(m-tolyl)-1H-pyrazol-1-yl)pyrimidin-2-yl)oxy)piperidin-1-yl)phenyl)ureido)azetidin-1-yl)-3-oxopropyl)pyrrolidine-2-carboxamide]
1 to 100 nM	Cc1cccc(-c2ccn(-c3cc(N4CCOCC4)nc(OC4CCN(c5ccc(NC(=O)NC6CN(C(=O)CC[C@H](NC(=O)[C@@H]7C[C@@H](O)CN7C(=O)[C@@H](NC(=O)C7(F)CC7)C(C)(C)C)c7ccc(-c8scnc8C)cc7)C6)cc5)CC4)n3)n2)c1 [Example 81, (2S,4R)-1-((S)-2-(1-fluorocyclopropane-1-carboxamido)-3,3-dimethylbutanoyl)-4-hydroxy-N—((S)-1-(4-(4-methylthiazol-5-yl)phenyl)-4-(3-(3-(4-(4-((4-morpholino-6-(3-(m-tolyl)-1H-pyrazol-1-yl)pyrimidin-2-yl)oxy)piperidin-1-yl)phenyl)ureido)azetidin-1-yl)-4-oxobutyl)pyrrolidine-2-carboxamide]
1 to 100 nM	Cc1cccc(-c2ccn(-c3cc(N4CCOCC4)nc(OC4CCN(c5ccc(NC(=O)NC6CCN(C(=O)C[C@H](NC(=O)[C@@H]7C[C@@H](O)CN7C(=O)[C@@H](NC(=O)C7(F)CC7)C(C)(C)C)c7ccc(-c8scnc8C)cc7)CC6)cc5)CC4)n3)n2)c1 [Example 82, (2S,4R)-1-((S)-2-(1-fluorocyclopropane-1-carboxamido)-3,3-dimethylbutanoyl)-4-hydroxy-N—((S)-1-(4-(4-methylthiazol-5-yl)phenyl)-3-(4-(3-(4-(4-((4-morpholino-6-(3-(m-tolyl)-1H-pyrazol-1-yl)pyrimidin-2-yl)oxy)piperidin-1-yl)phenyl)ureido)piperidin-1-yl)-3-oxopropyl)pyrrolidine-2-carboxamide]
1 to 100 nM	Cc1cccc(-c2ccn(-c3cc(N4CCOCC4)nc(OC4CCN(c5ccc(NC(=O)NC6CCN(C(=O)CC[C@H](NC(=O)[C@@H]7C[C@@H](O)CN7C(=O)[C@@H](NC(=O)C7(F)CC7)C(C)(C)C)c7ccc(-c8scnc8C)cc7)CC6)cc5)CC4)n3)n2)c1 [Example 83, (2S,4R)-1-((S)-2-(1-fluorocyclopropane-1-carboxamido)-3,3-dimethylbutanoyl)-4-hydroxy-N—((S)-1-(4-(4-methylthiazol-5-yl)phenyl)-4-(4-(3-(4-(4-((4-morpholino-6-(3-(m-tolyl)-1H-pyrazol-1-yl)pyrimidin-2-yl)oxy)piperidin-1-yl)phenyl)ureido)piperidin-1-yl)-4-oxobutyl)pyrrolidine-2-carboxamide]
1 to 100 nM	Cc1cccc(-c2ccn(-c3cc(N4CCOCC4)nc(OC4CCN(c5ccc(N6CCN(C(=O)C[C@H](NC(=O)[C@@H]7C[C@@H](O)CN7C(=O)[C@@H](NC(=O)C7(F)CC7)C(C)(C)C)c7ccc(-c8scnc8C)cc7)CC6)cc5)CC4)n3)n2)c1 [Example 84, (2S,4R)-1-((S)-2-(1-fluorocyclopropane-1-carboxamido)-3,3-dimethylbutanoyl)-4-hydroxy-N—((S)-1-(4-(4-methylthiazol-5-yl)phenyl)-3-(4-(4-(4-((4-morpholino-6-(3-(m-tolyl)-1H-pyrazol-1-yl)pyrimidin-2-yl)oxy)piperidin-1-yl)phenyl)piperazin-1-yl)-3-oxopropyl) pyrrolidine-2-carboxamide]
1 to 100 nM	Cc1cccc(-c2ccn(-c3cc(N4CCOCC4)nc(OC4CCN(c5ccc(N6CCN(C(=O)CC[C@H](NC(=O)[C@@H]7C[C@@H](O)CN7C(=O)[C@@H](NC(=O)C7(F)CC7)C(C)(C)C)c7ccc(-c8scnc8C)cc7)CC6)cc5)CC4)n3)n2)c1 [Example 85, (2S,4R)-1-((S)-2-(1-fluorocyclopropane-1-carboxamido)-3,3-dimethylbutanoyl)-4-hydroxy-N—((S)-1-(4-(4-methylthiazol-5-yl)phenyl)-4-(4-(4-(4-((4-morpholino-6-(3-(m-tolyl)-1H-pyrazol-1-yl)pyrimidin-2-yl)oxy)piperidin-1-yl)phenyl)piperazin-1-yl)-4-oxobutyl) pyrrolidine-2-carboxamide]
1 to 100 nM	Cc1cccc(-c2ccn(-c3cc(N4CCOCC4)nc(OC4CCN(c5ccc(N6CCN(C(=O)CCCC[C@H](NC(=O)[C@@H]7C[C@@H](O)CN7C(=O)[C@@H](NC(=O)C7(F)CC7)C(C)(C)C)c7ccc(-c8scnc8C)cc7)CC6)cc5)CC4)n3)n2)c1 [Example 86, (2S,4R)-1-((S)-2-(1-fluorocyclopropane-1-carboxamido)-3,3-dimethylbutanoyl)-4-hydroxy-N—((S)-1-(4-(4-methylthiazol-5-yl)phenyl)-6-(4-(4-(4-((4-morpholino-6-(3-(m-tolyl)-1H-pyrazol-1-yl)pyrimidin-2-yl)oxy)piperidin-1-yl)phenyl)piperazin-1-yl)-6-oxohexyl) pyrrolidine-2-carboxamide]
1 to 100 nM	Cc1cccc(-c2ccn(-c3cc(N4CCOCC4)nc(OCCc4ccc(-c5ccc(NC(=O)C[C@H](NC(=O)[C@@H]6C[C@@H](O)CN6C(=O)[C@@H](NC(=O)C6(F)CC6)C(C)(C)C)c6ccc(-c7scnc7C)cc6)cc5)cc4)n3)n2)c1 [Example 87, (2S,4R)-1-((S)-2-(1-fluorocyclopropane-1-carboxamido)-3,3-dimethylbutanoyl)-4-hydroxy-N—((S)-1-(4-(4-methylthiazol-5-yl)phenyl)-3-((4′-(2-((4-morpholino-6-(3-(m-tolyl)-1H-pyrazol-1-yl)pyrimidin-2-yl)oxy)ethyl)-[1,1′-biphenyl]-4-yl)amino)-3-oxopropyl)pyrrolidine-2-carboxamide]
1 to 100 nM	Cc1cccc(-c2ccn(-c3cc(N4CCOCC4)nc(OCCc4ccc(-c5ccc(NC(=O)CC[C@H](NC(=O)[C@@H]6C[C@@H](O)CN6C(=O)[C@@H](NC(=O)C6(F)CC6)C(C)(C)C)c6ccc(-c7scnc7C)cc6)cc5)cc4)n3)n2)c1 [Example 88, (2S,4R)-1-((S)-2-(1-fluorocyclopropane-1-carboxamido)-3,3-dimethylbutanoyl)-4-hydroxy-N—((S)-1-(4-(4-methylthiazol-5-yl)phenyl)-4-((4′-(2-((4-morpholino-6-(3-(m-tolyl)-1H-pyrazol-1-yl)pyrimidin-2-yl)oxy)ethyl)-[1,1′-biphenyl]-4-yl)amino)-4-oxobutyl)pyrrolidine-2-carboxamide]
100 to 10000 nM	Cc1cccc(-c2ccn(-c3cc(N4CCOCC4)nc(OC4CCN(c5ccc(N6CCN(c7cc8c(cc7F)C(=O)N(C7CCC(=O)NC7=O)C8=O)CC6)cc5)CC4)n3)n2)c1 (stereo not shown) [Example 89, 2-(2,6-Dioxopiperidin-3-yl)-5-fluoro-6-(4-(4-(4-((4-morpholino-6-(3-(m-tolyl)-1H-pyrazol-1-yl)pyrimidin-2-yl)oxy)piperidin-1-yl)phenyl)piperazin-1-yl)isoindoline-1,3-dione]
100 to 10000 nM	Cc1cccc(-c2ccn(-c3cc(N4CCOCC4)nc(OCCc4ccc(C#CC5CCN(c6cc7c(cc6F)C(=O)N(C6CCC(=O)NC6=O)C7=O)CC5)cc4)n3)n2)c1 (stereo not shown) [Example 90, 2-(2,6-Dioxopiperidin-3-yl)-5-fluoro-6-(4-((4-(2-((4-morpholino-6-(3-(m-tolyl)-1H-pyrazol-1-yl)pyrimidin-2-yl)oxy)ethyl)phenyl)ethynyl)piperidin-1-yl)isoindoline-1,3-dione]
100 to 10000 nM	Cc1cccc(-c2ccn(-c3cc(N4CCOCC4)nc(OCCc4ccc(N5CCN(CC6CCN(c7cc8c(cc7F)C(=O)N(C7CCC(=O)NC7=O)C8=O)CC6)CC5)cc4)n3)n2)c1 (stereo not shown) [Example 91, 2-(2,6-Dioxopiperidin-3-yl)-5-fluoro-6-(4-((4-(4-(2-((4-morpholino-6-(3-(m-tolyl)-1H-pyrazol-1-yl)pyrimidin-2-yl)oxy)ethyl)phenyl)piperazin-1-yl)methyl)piperidin-1-yl)isoindoline-1,3-dione]
100 to 10000 nM	Cc1cccc(-c2ccn(-c3cc(N4CCOCC4)nc(OC4CCN(c5ccc(NC(=O)NC6CCN(c7cc8c(cc7F)C(=O)N(C7CCC(=O)NC7=O)C8=O)CC6)cc5)CC4)n3)n2)c1 (stereo not shown) [Example 92, 1-(1-(2-(2,6-Dioxopiperidin-3-yl)-6-fluoro-1,3-dioxoisoindolin-5-yl)piperidin-4-yl)-3-(4-(4-((4-morpholino-6-(3-(m-tolyl)-1H-pyrazol-1-yl)pyrimidin-2-yl)oxy)piperidin-1-yl)phenyl)urea]
100 to 10000 nM	Cc1cccc(-c2ccn(-c3cc(N4CCOCC4)nc(OC4CCN(c5ccc(NC(=O)NC6CN(c7cc8c(cc7F)C(=O)N(C7CCC(=O)NC7=O)C8=O)C6)cc5)CC4)n3)n2)c1 (stereo not shown) [Example 93, 1-(1-(2-(2,6-Dioxopiperidin-3-yl)-6-fluoro-1,3-dioxoisoindolin-5-yl)azetidin-3-yl)-3-(4-(4-((4-morpholino-6-(3-(m-tolyl)-1H-pyrazol-1-yl)pyrimidin-2-yl)oxy)piperidin-1-yl)phenyl)urea]
100 to 10000 nM	Cc1cccc(-c2ccn(-c3cc(N4CCOCC4)nc(Oc4ccc(N5CCC(N6CCN(c7cc8c(cc7F)C(=O)N(C7CCC(=O)NC7=O)C8=O)CC6)CC5)cc4)n3)n2)c1 (stereo not shown) [Example 94, 2-(2,6-Dioxopiperidin-3-yl)-5-fluoro-6-(4-(1-(4-((4-morpholino-6-(3-(m-tolyl)-1H-pyrazol-1-yl)pyrimidin-2-yl)oxy)phenyl)piperidin-4-yl)piperazin-1-yl)isoindoline-1,3-dione]
100 to 10000 nM	Cc1cccc(-c2ccn(-c3cc(N4CCOCC4)nc(OC4CCN(c5ccc(CN6CCN(c7cc8c(cc7F)C(=O)N(C7CCC(=O)NC7=O)C8=O)CC6)cc5)CC4)n3)n2)c1 (stereo not shown) [Example 95, 2-(2,6-Dioxopiperidin-3-yl)-5-fluoro-6-(4-(4-(4-((4-morpholino-6-(3-(m-tolyl)-1H-pyrazol-1-yl)pyrimidin-2-yl)oxy)piperidin-1-yl)benzyl)piperazin-1-yl)isoindoline-1,3-dione]

Source: US20260317299A1, “PIKFYVE PROTEIN KINASE DEGRADATION AGENT AND USE THEREOF” (Shanghai Institute of Organic Chemistry, Chinese Academy of …, priority 2023, published 2026)
